Measurements published in US7371555B2, “Polypeptides having α-H-α-amino acid amide racemase activity and nucleic acids encoding the same” (DSM IP Assets B.V., priority 2002, dated 2008).

Legend:
[1] = test system: α-H-α-amino acid amide racemase from Arthrobacter nicotianae NCIMB 41126; test: Substrate specificity, CFE from E. coli DH10B/pAn(1)PLV36D06 (Example 9); type: biochemical; settings: relative to the activity towards D-leucine amide; 75 mM substrate, pH 8.0, 37° C.
Protocol: Preparation of the CFE of E. coli DH10B/pAn(1)PLV36D06 was performed as described in Example 7 for E. coli TOP10/pKEC_AZAR—3
Before applying the CFE from E. coli DH10B/pAn(1)PLV36D06 in the reactions with different enantiomerically pure α-H-α-amino acid amides to determine the substrate specificity of the A. nicotianae α-H-α-amino acid amide racemase, the E. coli amidases/aminopeptidases in this CFE were inhibited by a pre-treatment with an inhibitor cocktail. One tablet of Complete Mini Protease Inhibitor Cocktail (Roche Applied Science, Mannheim, Germany) was dissolved in 9 ml of the CFE followed by an incubation of 1 hour at room temperature. Next, reaction mixtures of 10 ml each (including the CFE) were prepared containing 50 mM HEPES-NaOH, pH 8.0, 20 μM pyridoxal-5-phosphate, 0.4 mg/ml BSA, 1 mM dithiothreitol and 75 mM of one of the amino acid amides tested. Reactions were started by the addition of 1 ml of the pre-treated CFE of E. coli DH10B/pAn(1)PLV36D06 or E. coli TOP10/pBAD/Myc-HisC (blank) and were incubated at 37° C. At regular time intervals samples of 1 ml were taken and transferred to vials containing 1 ml of 1M H3PO4 to stop the reaction. After sufficient dilution of the samples in 0.4 M borate buffer pH 9.4, the mixtures obtained were analyzed using HPLC to determine the exact concentrations of the two amino acid and two amino acid amide enantiomers according to the method of Example 7.

[2] = test system: E. coli clone containing the O. anthropi IA α-H-α-amino acid amide racemase gene (pOa(1)PLV49B10); test: Confirmation of potential positive clone of the O. anthropi IA gene library; type: cell-based, Ochrobactrum anthropi IA; settings: 70 mM substrate, 20 h at 30° C.
Protocol: Of all 32 potential positive clones identified in the screening, material from the masterplates was used to inoculate 3 ml of liquid screening medium containing 50 mg/l kanamycin. After growth for 2 days at 30° C., cells were collected by centrifuging 2 ml of these cell cultures. Then the cell pellets were washed four times in 25 mM Tris-HCl buffer, pH 7.5. Subsequently, the cell pellets were resuspended in 100 μl substrate solution containing 70 mM of D-phenylalanine amide, or D-leucine amide, or D-valine amide in 50 mM Tris-HCl, pH 7.5 and 1 mM MnCl2. After incubation for 20 h at 30° C., the reactions were stopped by the addition of 100 μl of 0.15 M HCl, after which the reaction mixtures were analyzed by the HPLC method described in Example 1.
This clone contained the O. anthropi IA α-H-α-amino acid amide racemase gene on its 7.7 kb plasmid. This was concluded from the fact that transformation of this plasmid into E. coli TOP10 cells inevitably led to recombinant cells that converted D-leucine amide into L-Leucine. […] The sequence of this gene is listed as nucleotides 98 to 1417 (including the TAA stopcodon) of SEQ ID NO:1 encoding the protein of SEQ ID: NO. 2 as presented infra.

CC(C)C[C@@H](N)C(N)=O [D-leucine amide]
Rel. initial activity [1]: 100%
formation of L-leucine from D-leucine amide [2]: significant formation of L-leucine
